# Data reported in patent publication US11541121B2, “Phosphorothioate-conjugated peptides and methods of using the same” (CITY OF HOPE, priority 2017, dated 2023).
# Where no end group is shown, it is not given here. [ ]: non-standard residue; d: D form. pY = N[C@@H](Cc1ccc(OP(=O)(O)O)cc1)C(=O)O
# Experiments:
# [1] = tested on: pY-STAT3; assay: pY-STAT3 Western blot in IL-6 stimulated HepG2 cells; format: cell-based, human; conditions: 1.0 μM, 30 min prior to IL-6 stimulation
# Protocol: FIG. 16: gp130-peptide treatment of cancer cells inhibits pY-STAT3 activation. Human hepatoma cells HepG2 were treated as indicated with 1.0 μM gp130-peptide peptide (i.e., 2263165 is phosphorothioate elongated SEQ ID NO:4, 1209196 is phosphorothioate elongated SEQ ID NO:8, and 2263163 is phosphorothioate elongated SEQ ID NO:9) for either 30 min prior to IL-6 stimulation. Whole cell lysates were subjected to electrophoretic protein separation and STAT3 activity was assessed by Western blot detecting phospho-tyrosine. Total STAT3 protein staining was included as a loading control.
# Human hepatoma cells HepG2 were treated as indicated with 1.0 uM gp130-peptide for either 30 min prior to IL-6 stimulation. Whole cell lysates were subjected to electrophoretic protein separation and STAT3 activity was assessed by Western blot detecting phospho-tyrosine. Total STAT3 protein staining was included as a loading control.
# [2] = tested on: IL-6/gp130 signaling; EGFR signaling; assay: IL-6 versus EGF stimulated signaling in HepG2 cells (STAT3 and MAPK p42/44 Western blot); format: cell-based, human; conditions: 1.0 μM, 30 min prior to IL-6 or EGF stimulation
# Protocol: Human hepatoma cells HepG2 were treated as indicated with 1.0 μM gp130-peptide peptide (i.e., 65 is phosphorothioate elongated SEQ ID NO:4, 96 is phosphorothioate elongated SEQ ID NO:8, and 63 is phosphorothioate elongated SEQ ID NO:9) for either 30 min prior to IL-6 or EGF stimulation. Whole cell lysates were subjected to electrophoretic protein separation and STAT3 as well as MAPK (p42/44) activity was assessed by Western blot. Total STAT3 and MAPK (p42/44) protein staining was included as a loading control.
# [3] = tested on: IL-6/gp130/STAT3 target genes; assay: RT-PCR of IL-6/gp130/STAT3 acute-phase target genes in IL-6 stimulated HepG2 cells; format: cell-based, human; conditions: 1.0 μM, 24 h upon IL-6 stimulation
# Protocol: (§1) Human hepatoma cells HepG2 were treated as indicated with 1.0 μM gp130-peptide (i.e., IL6-65 represents phosphorothioate elongated SEQ ID NO:4, IL6-96 represents phosphorothioate elongated SEQ ID NO:8, and IL-63 represents phosphorothioate elongated SEQ ID NO:9) for 24 h upon IL-6 stimulation. mRNA was isolated and target gene expression was assessed by RT-PCR. SD shown; T-test: *) P<0.05, **) P<0.01, ***) P<0.001.
# Interleukin-6 (IL-6) signaling feeds intracellular STAT3 activity by binding to the extracellular domain of IL-6Ralpha (gp80) recruiting the signaling co-receptors IL-6Rbeta (gp130). IL-6 engagement to these receptors leads to the phosphorylation of 6 tyrosine residues in the cytoplasmic tail of gp130; 3 of those phospho-tyrosines (pY767, pY905 and pY915) serve as the major docking sites recognized by STAT3s SH2 domain initiating STAT3 intracellular signaling. Applicants disclose these three gp130-peptides modified by phosphorothioated ssDNA extension (FIG. 13) considerably reduce expression of a repertoire of IL-6/gp130/STAT3 target genes orchestrating the acute-phase inflammatory response (FIG. 15) once they undergo cellular internalization (FIG. 14).
# [4] = tested on: survivin (BIRC5) and BclXL (BCL2L1); assay: RT-PCR of cancer cell survival genes in HepG2 cells; format: cell-based, human; conditions: 1.0 μM, 24 h upon IL-6 stimulation
# Protocol: as §1, with “T-test:” for “T-test: *) P<0.05, **) P<0.01,”
# [5] = tested on: W76964 (mouse pancreatic cancer cell line) cells; assay: Cell penetration in W76964 cells (flow cytometry); format: cell-based; conditions: 1×10^6 cells, 10 μg, 2 hours at 37° C.
# Protocol: FIGS. 29A-29B: Combination treatment of cell-penetrating Gp130-inhibitory peptide (i.e., Gp130 peptide) and c-MYC-inhibitory peptide (i.e., c-MYC binding peptide) (SEQ ID NO:10) suppresses tumor growth in a syngeneic mouse model of pancreatic cancer. FIG. 29A. […] 1×10^6 cells were incubated with 10 μg of PS-GP130- or PS-c-MYC-peptide for 2 hours at 37° C. […] FIG. 29B. W76964 cells were engrafted in C57BL/6 mice to generate tumors. After tumor size reached approximately 80 mm^3, PO-Gp130 or PS-GP130 was mixed with PS-c-MYC-inhibitory peptide (1:1 ratio) to treat mice systemically (i.v.) at 20 μg every other day. Tumor size was measured by a caliber. Tumor volume was calculated (V=(L×W×W)), where V is tumor volume, W is tumor width, L is tumor length. When some tumors start to reach 600 mm^3, all groups of mice were euthanized at the same time using protocols approved by IACUC of City of Hope. N=6 as indicated.
# 1×10^6 cells were incubated with 10 μg of PS-GP130- or PS-c-MYC-peptide for 2 hours at 37° C. […] W76964 cells were engrafted in C57BL/6 mice to generate tumors (FIG. 29B). […] Tumor size was measured by a caliber. Tumor volume was calculated (V=(L×W×W)), where V is tumor volume, W is tumor width, L is tumor length. […]
Substance,pY-STAT3 levels / STAT3 activity [1],specificity: IL-6/gp130 signaling versus EGF/EGFR signaling [2],expression of IL-6/gp130/STAT3 target genes of the acute-phase inflammatory response [3],expression of survival genes survivin (BIRC5) and BclXL (BCL2L1) [4],"cell penetration, flow cytometry [5]"
"PS-1209196: phosphorothioate elongated SEQ ID NO:8, gp130 peptide phosphorylated at tyrosine 905, MPKSpYLPQTV (MPKS[pY]LPQTV; also: phosphorothioate elongation)",inhibitory efficacy,specifically inhibits IL-6/gp130 signaling but not EGFR signaling,significantly reduces,significantly reduces,
"PS-2263163: phosphorothioate elongated SEQ ID NO:9, gp130 peptide phosphorylated at tyrosine 915, RQGGpYMPQ (RQGG[pY]MPQ; also: phosphorothioate elongation)",inhibitory efficacy,specifically inhibits IL-6/gp130 signaling but not EGFR signaling,significantly reduces,significantly reduces,
"PS-2263165: phosphorothioate elongated SEQ ID NO:4, gp130 peptide phosphorylated at tyrosine 767, VHSGpYRHQVPS (VHSG[pY]RHQVPS; also: phosphorothioate elongation)",inhibitory efficacy,specifically inhibits IL-6/gp130 signaling but not EGFR signaling,significantly reduces,significantly reduces,
PS-c-MYC-inhibitory peptide: phosphorothioate-conjugated c-MYC binding peptide SEQ ID NO:10 KNDTHQQDIDDLK (also: phosphorothioate-conjugated),,,,,cell penetration
